In patent publication US5677326A, “Indoline compound and 5-HT3 receptor antagonist containing the same as active ingredient” (Tokyo Tanabe Company Limited, priority 1993, dated 1997):
Structures can show the parent of a compound that is named as a salt. Where two headings read alike, the source gives them in different places. Values belong to the compound of their own block, whether it stands above or below them.

Columns and labels:
[1] = target: T1, 5-HT3 receptors in the heart (Rattus norvegicus, UniProt P35563); experiment: Antagonism against Von Bezold-Jarisch reflex (BJ reflex); format: in vivo, SD rats; conditions: 5 min before serotonin 30 μg/kg, read-out: ID50 (the source's name)
T1 construct: from tissue; host or cells: living anesthetized male SD rats (in vivo)
T1 sequence (P35563 24-483): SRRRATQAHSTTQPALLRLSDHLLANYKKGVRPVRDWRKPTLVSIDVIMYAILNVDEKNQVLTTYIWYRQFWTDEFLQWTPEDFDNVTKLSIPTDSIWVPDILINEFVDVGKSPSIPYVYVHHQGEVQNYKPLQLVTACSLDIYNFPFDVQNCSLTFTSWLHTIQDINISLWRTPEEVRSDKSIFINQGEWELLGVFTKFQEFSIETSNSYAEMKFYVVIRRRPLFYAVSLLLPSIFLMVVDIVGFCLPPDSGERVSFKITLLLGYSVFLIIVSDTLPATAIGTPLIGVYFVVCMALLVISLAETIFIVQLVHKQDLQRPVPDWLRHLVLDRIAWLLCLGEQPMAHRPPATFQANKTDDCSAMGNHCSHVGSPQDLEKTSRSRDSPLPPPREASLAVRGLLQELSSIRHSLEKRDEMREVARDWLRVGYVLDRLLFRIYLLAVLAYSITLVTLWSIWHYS
Experimental: Antagonism against Von Bezold-Jarisch reflex (BJ reflex):
The pulse was determined by measuring the electrocardiogram R waves (secondary induction) with an instantaneous pulse rate meter.

Acute toxicity (oral) = format: in vivo; conditions: rats; for LD50: rat, in vivo; for cases of death: 1000 mg/kg
[2] = target: T2, Intestinal 5-HT3 receptor (Cavia porcellus, UniProt O70212); experiment: Intestinal 5-HT3 receptor antagonism (isolated distal colon, 2-methylserotonin-induced contraction); format: cell-based, Hartley guinea pigs; conditions: for Kb: isolated distal colon, 2-methylserotonin contraction
T2 sequence (O70212 24-490 limits assumed): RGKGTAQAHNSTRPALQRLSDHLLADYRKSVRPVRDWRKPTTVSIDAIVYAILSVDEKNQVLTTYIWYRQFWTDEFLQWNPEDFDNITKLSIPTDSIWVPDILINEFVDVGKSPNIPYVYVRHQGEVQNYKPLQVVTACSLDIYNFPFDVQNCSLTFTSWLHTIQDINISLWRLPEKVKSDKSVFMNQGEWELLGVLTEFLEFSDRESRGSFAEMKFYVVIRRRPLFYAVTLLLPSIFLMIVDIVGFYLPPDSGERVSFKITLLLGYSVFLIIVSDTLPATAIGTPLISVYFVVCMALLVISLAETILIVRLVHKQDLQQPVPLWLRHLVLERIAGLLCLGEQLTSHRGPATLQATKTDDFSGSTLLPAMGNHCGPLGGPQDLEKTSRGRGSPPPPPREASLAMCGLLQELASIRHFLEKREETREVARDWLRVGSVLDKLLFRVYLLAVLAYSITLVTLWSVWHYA
Experimental: The test was conducted following the method of Miyata, et al. (The Journal of Pharmacology and Experimental Therapeutics Vol.259, No:1, 15 (1991)).
Male Hartley guinea pigs with a body weight of 300-400 g were bled to death, the distal colon (3-10 cm from the anus) was isolated and suspended in a Magnus tube filled with Krebs solution aerated with a mixed gas (95% O2, 5% CO2), and subjected to a tensile load of 1 g. After constant contraction by cumulative addition of 2-methylserotonin (10^-6 -10^-4 M) was obtained, the test agent was added and the pA2 value of the test agent was calculated based on its inhibiting action on the initial value.
The value (pA2 value) is defined as the negative logarithm (-logM) of the molar concentration (M) of the antagonist required to reduce the effect of serotonin at a concentration of 2 times the 2-methylserotonin concentration (EC50) necessary to induce half of the maximum contraction reaction, to an effect induced by an EC50 of serotonin.

[3] = system: restrained stress-induced diarrhea; experiment: Inhibiting effect on restrained stress-induced diarrhea (oral administration); format: in vivo, Wistar rats; conditions: 1 hour before stress
Experimental: Inhibiting effect on restrained stress-induced diarrhea (oral administration): This test was conducted following the method of Miyata, et al. […] Nine-week-old male Wistar rats fasted overnight were placed in a stress cage and their feces produced in 5 hours were observed. Of 15 rats, 14 developed diarrhea. The inhibiting effect on diarrhea was measured by oral administration of the test compounds one hour prior to placement in the stress cage.

gastric emptying = experiment: Accelerating effect on gastric emptying (cisplatin-reduced); format: in vivo, SD rats; conditions: for Gastric evacuation: oral, 30 min before cisplatin 10 mg/kg
Experimental: Accelerating effect on gastric emptying
Seven-week-old male SD rats which had been fasted for 24 hours were used. The effect on gastric emptying was studied in rats with reduced gastric emptying due to cisplatin. The rats were intragastrically administered the test feed (1.5% aqueous CMC solution containing 50 mg/100 ml phenol red) at 1.5 ml/rat, and after 15 minutes the stomachs were dissected, the residual amount of phenol red in the stomach was measured, in order to determine the gastric emptying in normal animals. A cisplatin-induced reduction in gastric emptying was measured by intraabdominal administration of cisplatin (10 mg/kg) 30 minutes prior to supplying the test feed. The test compound was also administered orally 30 minutes prior to the cisplatin administration to study the accelerating effect of the test compound on gastric emptying.

[4] = system: 5-HT3 receptors in the upper intestine; experiment: Antagonism against 5-HT-induced intestinal secretion (jejunal loop); format: in vivo, wister rats; conditions: for net fluid transfer in jejunal loop: caudal vein, 15 min before serotonin
Experimental: Antagonism against 5-HT-induced intestinal secretion:
Male wister rats (8-11 weeks old) were anesthetized with urethane, and the abdomen was opened a polyethylene catheter was placed in the jejunum 5 cm distal to the duodenojejunal flexure and fixed by ligation. The second ligation was made at a distal point of 20 cm to create a jejunal loop. Two ml of physiological saline was injected into this loop and initiated continuous injection of physiological saline (0.1 ml/min) or 5-HT (3 μg/0.1 ml/kg/min, serotonin treated group) into the mesenteric artery through the mesenteric artery gastric branch, and after 30 minutes the jejunal loop was isolated, the residual fluid amount was measured, and the net fluid transfer per gram of tissue weight was calculated. The net fluid transfer was expressed as the fluid amount (weight) change in 30 minutes per jejunal tissue weight (g/30 min/g). A "+" was assigned when the fluid amount increased compared with 2 ml of physiological saline injected into the loop, and "-" when it decreased

[5] = system: cisplatin-induced vomiting; experiment: Inhibiting effect on cisplatin-induced vomiting; format: in vivo, ferrets; conditions: oral, 1 hour before cisplatin; for No. of retching / No. of vomiting animals/No. of animals used / No. of vomitings: 6 hours
Excerpt: Inhibiting effect on cisplatin-induced vomiting:
Vomiting was induced in ferrets by administration of cisplatin. The inhibiting effect on this vomiting was observed. […] The test agents were orally administered one hour prior to cisplatin administration. […]

[6] = system: restraint stress-induced diarrhea; experiment: Inhibiting effect on restraint stress-induced diarrhea (intraabdominal administration); format: in vivo, Wistar rats; conditions: 30 μg/kg, 30 min before stress
Experimental: Inhibiting effect on restraint stress-induced diarrhea (intraabdominal administration): This test was conducted in the same manner as Test 3. Nine- to ten-week-oldmale Wistar rats fasted overnight were placed in a stress case and their feces produced in 5 hours were observed. Of 15 rats, 14 developed diarrhea. The inhibiting effect on diarrhea was measured by intraabdominal administration of a test compound 30 minutes prior to placement in the stress cage.

[7] = system: duodenal extension reflex; experiment: Inhibiting effect on duodenal extension reflex; format: in vivo, Wistar rats; conditions: for Inhibition rate, 5-min value / Inhibition rate, 15-min value / Inhibition rate, 25-min value: intravenous
Excerpt: Inhibiting effect on duodenal extension reflex: Unfasted male Wistar rats with a body weight of 300-390 g were opened at the abdomen under urethane anesthesia, and ligated at 2 locations, the gastric pyloric region and 3-4 cm directly under it, to create a duodenal loop. […] The beaker was raised at once to create a internal loop pressure of 75 cm H2, and the depressor reflex and effect of the test agent administration were observed. […] The test agent was then administrated intravenously, and at 5, 15 and 25 minutes after administration an extension stimulus was applied, the depressor reflex was observed, and the differences were expressed as percentages with respect to the initial value, to give the inhibition rates.

stress-related diarrhea = conditions: animal models; J. Pharmacol. Exp. Ther. 261, 297 (1992); cited from earlier work
[8] = read-out: M (molar concentration of antagonist)

SMILES: Cl.O=C(C1CCc2nc[nH]c2C1)N1CC(c2ccc(O)cc2)c2ccccc21 (stereo not drawn) [Compound 8, 5-[(3-(4-hydroxyphenyl)indolin-1-yl)carbonyl]-4,5,6,7-tetrahydrobenzimidazole hydrochloride]
- ED50 ([1]; iv): 0.13 µg/kg
- LD50 (Acute toxicity (oral)): ≥ 1000 mg/kg
- cases of death (Acute toxicity (oral)): no cases of death
- Kb ([2]; read-out: pA2 (converted)): 0.1 nM
- Inhibition rate ([3]; 30 μg/kg): 70%
- No. of animals with diarrhea/No. of animals used ([3]; 30 μg/kg): 2/10

- Kb [2, 8]: 0.05 nM
- Kb ([2]; read-out: pA2 (converted)): 0.126 nM
SMILES: O=C(C1CCc2nc[nH]c2C1)N1CC(c2ccccc2O)c2ccccc21 (stereo not drawn) [Compound 10, 5-[(3-(2-hydroxyphenyl)indolin-1-yl)carbonyl]-4,5,6,7-tetrahydrobenzimidazole hydrochloride]

SMILES: Cl.O=C(C1CCc2nc[nH]c2C1)N1CC(c2ccccc2)c2ccccc21 (stereo not drawn) [Compound 4, 5-[(3-phenylindolin-1-yl)carbonyl]-4,5,6,7-tetrahydrobenzimidazole hydrochloride]
- inhibition of cisplatin-induced gastric emptying reduction (in words) (gastric emptying; 0.3 μg/kg): inhibited similar cisplatin-induced gastric emptying reduction
- Gastric evacuation (gastric emptying; 0.3 μg/kg): 73.3%
- amount needed relative to YM-060 for similar inhibition of gastric emptying reduction (gastric emptying; 0.3 μg/kg, relative to the amount of YM-060): less than 1/3
- gastric emptying acceleration (in words) (gastric emptying; 1.0 μg/kg): gastric emptying was further accelerated
- Gastric evacuation (gastric emptying; 1.0 μg/kg): 82.4%
- ED50 ([1]; iv): 0.00039 µmol/kg
- LD50 (Acute toxicity (oral)): ≥ 1000 mg/kg
- cases of death (Acute toxicity (oral)): no cases of death
- net fluid transfer in jejunal loop ([4]; 0.1 μg/kg): -0.50 ± 0.07 g/30 min/g tissue weight
- net fluid transfer in jejunal loop ([4]; 1.0 μg/kg): -0.80 ± 0.09 g/30 min/g tissue weight
- Latency* (time to initial retching) ([5]; 0.3 μg): 114.0 min
- Latency** (time to initial vomiting) ([5]; 0.3 μg): 114.0 min
- No. of retching ([5]; 0.3 μg): 139.0
- No. of vomiting animals/No. of animals used ([5]; 0.3 μg): 2/2
- No. of vomitings ([5]; 0.3 μg): 7.0
- Latency* (time to initial retching) ([5]; 1.0 μg): > 289.7 min
- Latency** (time to initial vomiting) ([5]; 1.0 μg): 293.0 min
- No. of retching ([5]; 1.0 μg): 14.7
- No. of vomiting animals/No. of animals used ([5]; 1.0 μg): 1/3
- No. of vomitings ([5]; 1.0 μg): 1.0
- Inhibition rate [6]: 90%
- No. of animals with diarrhea/No. of animals used [6]: 1/10
- activity in the colon compared to YM-060 and YM-114 ([2]; colon, relative to YM-060 and YM-114): about 15 -fold
- Kb [2, 8]: 0.3 nM
- Kb ([2]; read-out: pA2 (converted)): 0.251 nM
- Inhibition rate, 5-min value ([7]; 1 μg/kg): 21.7%
- Inhibition rate, 15-min value ([7]; 1 μg/kg): 6.7%
- Inhibition rate, 25-min value ([7]; 1 μg/kg): 20.2%
- Inhibition rate, 5-min value ([7]; 10 μg/kg): 16.3%
- Inhibition rate, 15-min value ([7]; 10 μg/kg): 17.8%
- Inhibition rate, 25-min value ([7]; 10 μg/kg): 21.1%
- inhibition of intestinal sensitivity to dilatation / alleviation of abdominal pain (in words) ([7]; rat, in vivo): inhibited intestinal sensitivity to dilatation stimulation more strongly than YM-060
- Inhibition rate ([3]; 30 μg/kg): 70%
- No. of animals with diarrhea/No. of animals used ([3]; 30 μg/kg): 3/10

- Kb [2, 8]: 0.13 nM
- Kb ([2]; read-out: pA2 (converted)): 0.1 nM
SMILES: COc1cccc(C2CN(C(=O)C3CCc4nc[nH]c4C3)c3ccccc32)c1 (stereo not drawn) [Compound 12, 5-[(3-(3-methoxyphenyl)indolin-1-yl)carbonyl]-4,5,6,7-tetrahydrobenzimidazole hydrochloride]

SMILES: CN1C2CCCC1CC(NC(=O)c1nn(C)c3ccccc13)C2 (stereo not drawn) [Granisetron, N-(endo-9-methyl-9-azabicyclo [3,3,1]nona-3-yl)-l-methyl-indazol-3-carboxamide hydrochloride]
- suppression of stress-related diarrhea (in words) (stress-related diarrhea): suppress stress-related diarrhea

SMILES: CN1[C@@H]2CC[C@H]1C[C@@H](OC(=O)c1c[nH]c3ccccc13)C2 [Tropisetron, endo-8-methyl-8-azabicyclo[3,2,1]octa-3-yl indol-3-ylcarboxylate]
- Inhibition rate, 5-min value ([7]; 10 μg/kg): 42.7%
- Inhibition rate, 15-min value ([7]; 10 μg/kg): 44.1%
- Inhibition rate, 25-min value ([7]; 10 μg/kg): 30.6%

SMILES: Cl.O=C(C1CCc2nc[nH]c2C1)N1CC(c2ccccc2)c2ccccc21 (stereo not drawn) [Compound 2, 5-[(3-phenylindolin-1-yl)carbonyl]-4,5,6,7-tetrahydrobenzimidazole hydrochloride]
- ED50 ([1]; iv): 0.3 µg/kg
- Kb ([2]; read-out: pA2 (converted)): 1 nM

- Kb ([2]; read-out: pA2 (converted)): > 10 nM
SMILES: CC1CN(C(=O)C2CCc3[nH]cnc3C2)c2ccccc21 (stereo not drawn) [A, reference compound]

SMILES: NCCc1c[nH]c2ccc(O)cc12 [serotonin, 5-hydroxytryptamine]
- acceleration in intestinal secretion ([4]; serotonin administration versus control): 0.19 g/30 min/g tissue weight

SMILES: Cl.O=C(C1CCc2nc[nH]c2C1)N1CC(c2cccc(O)c2)c2ccccc21 (stereo not drawn) [Compound 6, 5-[(3-(3-hydroxyphenyl)indolin-1-yl)carbonyl]-4,5,6,7-tetrahydrobenzimidazole hydrochloride]
- ED50 ([1]; iv): 0.15 µg/kg
- LD50 (Acute toxicity (oral)): ≥ 1000 mg/kg
- cases of death (Acute toxicity (oral)): no cases of death
- Kb ([2]; read-out: pA2 (converted)): 0.1 nM
- Inhibition rate ([3]; 100 μg/kg): 100%
- No. of animals with diarrhea/No. of animals used ([3]; 100 μg/kg): 0/5

SMILES: Cc1nccn1CC1CCc2c(c3ccccc3n2C)C1=O (stereo not drawn) [Ondansetron, 1,2,3,4-tetrahydro-9-methyl-3-[(2-methyl-1H-imidazol-1-yl)methyl]-4H-carbazol-4-one-hydrochloride dihydrate]
- suppression of stress-related diarrhea (in words) (stress-related diarrhea): suppress stress-related diarrhea

- ED50 ([1]; intravenous): 0.15 µg/kg
- Kb ([2]; read-out: pA2 (converted)): 3.98 nM
SMILES: O=C([C@@H]1CCc2[nH]cnc2C1)N1CCc2ccccc21 [YM-114, reference compound]
- Inhibition rate ([3]; 30 μg/kg): 30%
- No. of animals with diarrhea/No. of animals used ([3]; 30 μg/kg): 7/10
